According to patent US20240261224A1, “FORMULATION OF A PAN-JAK INHIBITOR” (KINASET THERAPEUTICS, INC., priority 2022, published 2024):
Like-named read-outs stand apart in the source and are kept apart here.

Legend:
[1] = Phase 1 clinical trial adverse events summary (Part 1 healthy volunteers); format: in vivo, human; conditions: for Severe/serious TEAE, n (%) / Subjects with TEAE n, (%) / TEAE leading to discontinuation: Part 1 healthy volunteers
Method: A status summary of the phase 1 clinical trial recruitment is shown below in Table 18. Capsules filled with blend 2a were used to achieve a 0.6 mg target dose of Compound I (0.2 mg capsules×3). Capsules filled with blend 4 were used to achieve 2.0 mg, 4.0 mg, 6.0 mg, 8.0 mg, and 12.0 mg target doses of Compound I (2.0 mg capsule×1; 4.0 mg capsule×1; 2.0 mg capsules×3; 4.0 mg capsules×2; and 4.0 mg capsules×3, respectively). Twice daily dosing (BID) was achieved by repeating the preceding regime. For example, an 8.0 mg BID dosing regime is achieved by administering two doses of 4.0 mg capsules×2.

[2] = Phase 1 Part 3 plasma pharmacokinetics (moderate to severe asthma); format: in vivo, human; conditions: 4 mg BID; for AUC(0-t) / AUC(0-inf) / AUC / Cmax: human, plasma, inhaled, 4 mg
Method: Part 3 involved the administration of a single dose regimen (4 mg BID), to subjects (17 active:6 placebo) with moderate to severe asthma treated with background ISC/LABA therapy, over a 10-day period. Blood samples were collected to enable the measurement of KN-002 concentrations in plasma. The resultant data was used to determine the pharmacokinetic parameters at Day 10 representing the Day on which the final dose was received.

JAK3 = target: T1, JAK3 (Homo sapiens, UniProt P52333); conditions: cited from earlier work
T1 sequence (P52333 1-1124): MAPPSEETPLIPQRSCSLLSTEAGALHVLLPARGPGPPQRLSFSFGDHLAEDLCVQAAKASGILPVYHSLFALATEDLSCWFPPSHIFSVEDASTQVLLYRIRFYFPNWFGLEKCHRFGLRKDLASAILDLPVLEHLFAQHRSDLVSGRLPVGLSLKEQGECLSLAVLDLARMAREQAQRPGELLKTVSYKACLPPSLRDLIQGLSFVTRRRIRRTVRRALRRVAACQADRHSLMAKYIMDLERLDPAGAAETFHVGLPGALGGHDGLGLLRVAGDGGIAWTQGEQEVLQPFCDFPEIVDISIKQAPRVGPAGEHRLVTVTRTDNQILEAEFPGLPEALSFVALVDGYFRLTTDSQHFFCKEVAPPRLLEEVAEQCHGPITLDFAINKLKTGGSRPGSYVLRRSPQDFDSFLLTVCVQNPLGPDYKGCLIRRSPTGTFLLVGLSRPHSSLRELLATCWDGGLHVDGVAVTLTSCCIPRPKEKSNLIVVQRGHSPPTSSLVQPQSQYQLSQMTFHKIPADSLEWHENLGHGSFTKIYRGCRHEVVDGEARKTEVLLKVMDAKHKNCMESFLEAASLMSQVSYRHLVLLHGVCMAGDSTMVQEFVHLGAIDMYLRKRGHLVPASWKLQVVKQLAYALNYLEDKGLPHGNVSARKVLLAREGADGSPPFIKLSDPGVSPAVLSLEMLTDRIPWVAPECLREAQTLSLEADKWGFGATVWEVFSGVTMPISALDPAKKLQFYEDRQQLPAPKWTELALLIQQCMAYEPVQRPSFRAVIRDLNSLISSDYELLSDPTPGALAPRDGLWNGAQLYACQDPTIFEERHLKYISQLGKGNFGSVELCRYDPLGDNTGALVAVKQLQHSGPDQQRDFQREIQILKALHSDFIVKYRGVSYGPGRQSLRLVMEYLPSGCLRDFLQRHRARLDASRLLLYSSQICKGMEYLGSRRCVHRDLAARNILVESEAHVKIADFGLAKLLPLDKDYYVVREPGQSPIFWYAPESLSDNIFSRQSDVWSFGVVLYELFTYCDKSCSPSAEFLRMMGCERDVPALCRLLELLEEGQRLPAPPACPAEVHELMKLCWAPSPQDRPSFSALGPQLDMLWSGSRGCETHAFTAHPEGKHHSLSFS

## Cn1c(=O)n([C@H]2CCCN(C(=O)CC#N)C2)c2nc(-c3cnn4ccccc34)ccc21 [Compound I, (S)-3-(3-(1-methyl-2-oxo-5-(pyrazolo[1,5-a]pyridine-3-yl)-1H-imidazo[4,5-b]pyridine-3(2H)-yl)piperidin-1-yl)-3-oxopropanenitrile]
[1]; 0.2 mg (n = 6)
  Severe/serious TEAE, n (%): 0
  Subjects with TEAE n, (%): 0
  TEAE leading to discontinuation: 0
[1]; 0.6 mg (n = 7)
  Severe/serious TEAE, n (%): 0
  Subjects with TEAE n, (%): 2 (29%)
  TEAE leading to discontinuation: 1
[1]; 2.0 mg (n = 6)
  Severe/serious TEAE, n (%): 0
  Subjects with TEAE n, (%): 2 (33%)
  TEAE leading to discontinuation: 0
[1]; 4.0 mg (n = 6)
  Severe/serious TEAE, n (%): 0
  Subjects with TEAE n, (%): 0
  TEAE leading to discontinuation: 0
[1]; 6.0 mg (n = 6)
  Severe/serious TEAE, n (%): 0
  Subjects with TEAE n, (%): 0
  TEAE leading to discontinuation: 0
[1]; 12.0 mg (n = 6)
  Severe/serious TEAE, n (%): 0
  Subjects with TEAE n, (%): 0
  TEAE leading to discontinuation: 0
[1]; phase 1 clinical trial
  Changes in cardiovascular endpoints (ECG and vital signs): No treatment-related clinically relevant changes
  Severe or serious adverse events: No severe or serious adverse events were observed
[1]; phase 1 clinical trial, per investigator
  Changes in hematology, biochemistry or urinalysis parameters including those influenced by JAK inhibition: No clinically relevant changes
[2]; Day 10
  AUC0-24 hours Max: 689,494 pg · h/ml
  AUC0-24 hours Min: 123,642 pg · h/ml
  AUC0-last non-zero Max: 886,864 pg · h/ml
  AUC0-last non-zero Min: 133,118 pg · h/ml
  AUC0-∞ Max: 887,512 pg · h/ml
  AUC0-∞ Min: 134,831 pg · h/ml
  AUCover dosing interval Max: 501,523 pg · h/ml
  AUCover dosing interval Min: 105,203 pg · h/ml
  Cmax Max: 63,800 pg/ml
  Cmax Min: 15,900 pg/ml
  Ctrough Geometric mean: 9,806 pg/ml
  Ctrough Max: 23,000 pg/ml
  Ctrough Mean: 11,153 pg/ml
  Ctrough Min: 2,490 pg/ml
[2]; Day 10, read-out: AUC0-24 hours Geometric mean
  AUC(0-t): 334 ng·h/mL
[2]; Day 10, read-out: AUC0-24 hours Mean
  AUC(0-t): 365 ng·h/mL
[2]; Day 10, read-out: AUC0-last non-zero Geometric mean
  AUC(0-t): 393 ng·h/mL
[2]; Day 10, read-out: AUC0-last non-zero Mean
  AUC(0-t): 438 ng·h/mL
[2]; Day 10, read-out: AUC0-∞ Geometric mean
  AUC(0-inf): 395 ng·h/mL
[2]; Day 10, read-out: AUC0-∞ Mean
  AUC(0-inf): 439 ng·h/mL
[2]; Day 10, read-out: AUCover dosing interval Geometric mean
  AUC: 257 ng·h/mL
[2]; Day 10, read-out: AUCover dosing interval Mean
  AUC: 278 ng·h/mL
[2]; Day 10, read-out: Cmax Geometric mean
  Cmax: 35 ng/mL
[2]; Day 10, read-out: Cmax Mean
  Cmax: 37.5 ng/mL
JAK3
  Inhibition of JAK3: potent inhibitor
